Earlier results as cited in patent publication EP3196312B1, “EFFICIENT CONVERSION OF METHYLGLYOXAL INTO HYDROXYACETONE USING NOVEL ENZYMES AND APPLI CATIONS THEREOF” (Metabolic Explorer, priority 2016, dated 2017).

Experiments:
[1] = target: T1, Escherichia coli YqhD (alcohol dehydrogenase, Uniprot Q46856), wild type, SEQ ID NO: 7 (Escherichia coli, UniProt Q46856); details: toward methylglyoxal and NADPH; as cited from WO 2011/012697
T1 sequence (Q46856 1-387): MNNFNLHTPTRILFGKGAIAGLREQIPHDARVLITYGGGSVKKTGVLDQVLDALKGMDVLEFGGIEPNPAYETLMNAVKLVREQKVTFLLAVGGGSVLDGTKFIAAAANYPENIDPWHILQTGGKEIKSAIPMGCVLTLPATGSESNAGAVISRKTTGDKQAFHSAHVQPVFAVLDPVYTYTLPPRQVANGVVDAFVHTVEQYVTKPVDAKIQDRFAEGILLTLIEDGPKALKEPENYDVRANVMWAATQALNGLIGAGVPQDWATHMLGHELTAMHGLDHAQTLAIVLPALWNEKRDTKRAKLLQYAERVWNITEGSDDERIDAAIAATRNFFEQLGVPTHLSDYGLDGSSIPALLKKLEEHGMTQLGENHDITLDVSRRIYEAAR

[2] = target: T2, Escherichia coli YqhD variant YqhD*(G149E), SEQ ID NO: 9 (Escherichia coli, UniProt Q46856, G149E); details: toward methylglyoxal and NADPH; as cited from WO 2011/012697
T2 sequence (Q46856 1-387 G149E): T1 sequence (Q46856 1-387)

Question: With CC(=O)C=O [methylglyoxal] as the compound, how does the Km [1] read?
Answer: The Km was 2090 µM.

Question: What about the Km [2] of the same compound?
Answer: Its Km is 2920 µM.
